The source made the active and inactive calls.

Targets include Cytochrome P450 2D6 (Homo sapiens, UniProt P10635); Cytochrome P450 3A4 (Homo sapiens, UniProt P08684); Cytochrome P450 2C9 (Homo sapiens, UniProt P11712).
In a further test the target is T1, Cytochrome P450 1A2 (Homo sapiens, UniProt P05177).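 Further: PubChem cytochrome P450 panel assay, CYP1A2 panel member.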
T1 sequence (P05177 whole entry): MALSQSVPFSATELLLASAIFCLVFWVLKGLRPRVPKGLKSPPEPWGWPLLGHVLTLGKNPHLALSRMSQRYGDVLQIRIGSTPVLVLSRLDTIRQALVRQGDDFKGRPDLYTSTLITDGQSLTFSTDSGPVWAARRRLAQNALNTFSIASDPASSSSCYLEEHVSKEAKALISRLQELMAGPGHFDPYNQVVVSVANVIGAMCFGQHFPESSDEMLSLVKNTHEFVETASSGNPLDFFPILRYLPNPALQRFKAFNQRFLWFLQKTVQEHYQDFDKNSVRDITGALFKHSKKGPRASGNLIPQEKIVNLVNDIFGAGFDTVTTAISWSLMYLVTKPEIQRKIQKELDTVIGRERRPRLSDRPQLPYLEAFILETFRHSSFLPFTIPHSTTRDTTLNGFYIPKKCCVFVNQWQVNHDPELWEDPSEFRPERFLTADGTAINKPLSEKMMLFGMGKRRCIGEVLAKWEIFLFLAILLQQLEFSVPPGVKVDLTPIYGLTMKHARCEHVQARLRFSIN

Test [1] deals with T2, Corticotropin-releasing factor receptor 2/Corticotropin-releasing factor-binding protein (Homo sapiens, UniProt P24387+Q13324).
T2 sequence (Q13324 whole entry): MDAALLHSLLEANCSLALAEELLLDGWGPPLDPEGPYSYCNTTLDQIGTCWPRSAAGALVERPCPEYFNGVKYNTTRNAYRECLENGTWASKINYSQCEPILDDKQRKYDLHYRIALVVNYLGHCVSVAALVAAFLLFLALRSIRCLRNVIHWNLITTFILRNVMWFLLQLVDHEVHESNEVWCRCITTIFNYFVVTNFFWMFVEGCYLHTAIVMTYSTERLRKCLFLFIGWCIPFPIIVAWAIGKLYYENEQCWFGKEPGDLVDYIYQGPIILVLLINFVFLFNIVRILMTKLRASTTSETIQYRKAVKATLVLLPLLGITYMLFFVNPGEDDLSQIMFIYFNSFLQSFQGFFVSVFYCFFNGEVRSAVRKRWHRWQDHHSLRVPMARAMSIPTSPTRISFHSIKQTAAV
T2 sequence (P24387 whole entry): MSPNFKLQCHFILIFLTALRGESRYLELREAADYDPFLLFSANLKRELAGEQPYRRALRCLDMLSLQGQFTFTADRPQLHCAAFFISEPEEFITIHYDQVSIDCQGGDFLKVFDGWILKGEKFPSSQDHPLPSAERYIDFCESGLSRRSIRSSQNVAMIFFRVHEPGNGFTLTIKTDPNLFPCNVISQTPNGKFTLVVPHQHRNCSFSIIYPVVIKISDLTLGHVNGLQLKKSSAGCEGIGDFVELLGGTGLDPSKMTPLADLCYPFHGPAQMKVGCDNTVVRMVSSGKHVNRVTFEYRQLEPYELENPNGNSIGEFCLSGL
Description: Dose Response confirmation of uHTS hits for small molecule antagonists of the CRF-binding protein and CRF-R2 receptor complex. It counts as functional. The note with it: read-out: IC50_Mean.

The target in test [2] is T2, Corticotropin-releasing factor receptor 2/Corticotropin-releasing factor-binding protein. Description: activators of CRF receptor 2 with binding protein – uHTS hits, confirmation (AID 602473). It counts as functional. The note with it: read-out: EC50_Mean.
The target of another test is Cytochrome P450 2C19 (Homo sapiens, UniProt P33261). Description: Cytochrome panel assay with activity outcomes. Panel member name: p450-cyp2c19 Compounds with AC50 equal or less than 10 uM are considered active. It counts as functional. The note with it: read-out: AC50.
Cytochrome P450 2C19, sequence (P33261 whole entry): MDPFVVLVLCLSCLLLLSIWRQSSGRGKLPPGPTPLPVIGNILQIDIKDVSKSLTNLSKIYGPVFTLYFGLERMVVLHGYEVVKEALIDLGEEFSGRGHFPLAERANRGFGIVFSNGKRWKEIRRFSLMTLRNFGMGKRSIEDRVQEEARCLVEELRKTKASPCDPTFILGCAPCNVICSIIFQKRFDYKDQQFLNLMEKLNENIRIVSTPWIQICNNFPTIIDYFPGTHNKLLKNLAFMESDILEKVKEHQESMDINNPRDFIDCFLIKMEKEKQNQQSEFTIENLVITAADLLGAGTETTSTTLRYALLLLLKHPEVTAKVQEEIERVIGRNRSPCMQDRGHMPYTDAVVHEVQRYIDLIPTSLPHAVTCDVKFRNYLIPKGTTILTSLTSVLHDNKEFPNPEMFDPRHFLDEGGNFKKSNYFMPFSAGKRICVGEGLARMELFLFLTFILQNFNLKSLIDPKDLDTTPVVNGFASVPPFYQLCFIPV
For the next test, the target named is T3, Streptokinase A (Streptococcus pyogenes serotype M1, UniProt P10520).
T3 sequence (P10520 whole entry): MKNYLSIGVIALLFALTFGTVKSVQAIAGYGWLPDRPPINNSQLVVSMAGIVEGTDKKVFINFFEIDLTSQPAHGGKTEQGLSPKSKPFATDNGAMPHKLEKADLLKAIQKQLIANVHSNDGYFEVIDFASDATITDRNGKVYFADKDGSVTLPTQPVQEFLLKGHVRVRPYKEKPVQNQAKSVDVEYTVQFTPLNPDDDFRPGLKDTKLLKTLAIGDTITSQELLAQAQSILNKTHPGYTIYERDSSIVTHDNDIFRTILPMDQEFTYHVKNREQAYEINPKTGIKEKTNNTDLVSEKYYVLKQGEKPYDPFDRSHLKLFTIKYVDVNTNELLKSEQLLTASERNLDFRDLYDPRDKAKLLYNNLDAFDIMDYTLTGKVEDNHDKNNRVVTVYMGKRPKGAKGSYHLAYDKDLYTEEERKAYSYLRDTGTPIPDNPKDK
Description: viability-normalized secreted streptokinase activity reduction – plasminogen activation absorbance, OD405, dose response (AID 1914).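 Further: secreted streptokinase activity via plasminogen activation per viability signal from cell pellet.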 It counts as functional, Streptococcus pyogenes M1 GAS.

The target of another test is Paired box protein Pax-8 (Homo sapiens, UniProt Q06710). Description: PAX8 transcriptional activity inhibition in RMG-I – RMG-I cells, luciferase, cherry-pick, dose response (AID 687027).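 Further: luciferase reporter driven by Pax8 target thyroperoxidase promoter measured by SteadyGlo luminescence.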 It counts as functional, cell-based.
Paired box protein Pax-8, sequence (Q06710 whole entry): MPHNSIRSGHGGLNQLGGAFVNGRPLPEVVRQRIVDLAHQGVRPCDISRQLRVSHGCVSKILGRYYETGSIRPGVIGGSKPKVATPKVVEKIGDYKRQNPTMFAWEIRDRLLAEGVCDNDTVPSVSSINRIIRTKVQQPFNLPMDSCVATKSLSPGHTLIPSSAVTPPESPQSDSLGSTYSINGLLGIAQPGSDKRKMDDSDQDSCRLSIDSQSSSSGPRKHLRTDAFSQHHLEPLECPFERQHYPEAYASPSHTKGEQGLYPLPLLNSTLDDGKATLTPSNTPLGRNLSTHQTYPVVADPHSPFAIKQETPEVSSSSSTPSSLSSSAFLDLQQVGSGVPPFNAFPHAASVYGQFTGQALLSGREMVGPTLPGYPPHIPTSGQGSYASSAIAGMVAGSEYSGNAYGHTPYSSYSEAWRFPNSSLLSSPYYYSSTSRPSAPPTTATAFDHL

Cytochrome P450 3A4, sequence (P08684 whole entry): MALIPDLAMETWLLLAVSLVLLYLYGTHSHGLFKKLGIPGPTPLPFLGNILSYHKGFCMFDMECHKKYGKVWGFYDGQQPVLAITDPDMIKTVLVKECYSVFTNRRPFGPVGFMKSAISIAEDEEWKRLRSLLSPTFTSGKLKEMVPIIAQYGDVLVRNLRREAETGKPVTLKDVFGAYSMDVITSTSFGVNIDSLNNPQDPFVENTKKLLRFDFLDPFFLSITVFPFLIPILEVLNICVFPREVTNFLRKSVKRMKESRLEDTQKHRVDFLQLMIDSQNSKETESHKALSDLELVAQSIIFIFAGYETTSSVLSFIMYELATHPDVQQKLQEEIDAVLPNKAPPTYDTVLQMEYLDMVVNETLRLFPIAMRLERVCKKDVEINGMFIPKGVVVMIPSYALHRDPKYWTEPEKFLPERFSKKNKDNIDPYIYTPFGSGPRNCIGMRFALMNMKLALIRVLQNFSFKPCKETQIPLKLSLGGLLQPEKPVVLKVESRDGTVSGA
Cytochrome P450 2C9, sequence (P11712 whole entry): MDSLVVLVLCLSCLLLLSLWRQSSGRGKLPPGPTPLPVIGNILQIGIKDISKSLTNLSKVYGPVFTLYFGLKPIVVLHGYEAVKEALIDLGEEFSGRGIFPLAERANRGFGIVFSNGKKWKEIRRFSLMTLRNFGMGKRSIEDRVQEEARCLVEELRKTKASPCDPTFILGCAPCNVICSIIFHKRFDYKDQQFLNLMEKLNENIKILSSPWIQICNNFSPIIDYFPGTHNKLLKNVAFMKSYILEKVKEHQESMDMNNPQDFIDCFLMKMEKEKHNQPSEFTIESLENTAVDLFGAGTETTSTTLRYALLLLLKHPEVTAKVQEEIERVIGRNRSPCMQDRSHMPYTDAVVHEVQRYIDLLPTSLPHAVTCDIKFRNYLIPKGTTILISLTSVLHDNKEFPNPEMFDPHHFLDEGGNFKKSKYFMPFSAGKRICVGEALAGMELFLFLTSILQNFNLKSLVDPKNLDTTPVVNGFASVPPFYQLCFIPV
Cytochrome P450 2D6, sequence (P10635 whole entry): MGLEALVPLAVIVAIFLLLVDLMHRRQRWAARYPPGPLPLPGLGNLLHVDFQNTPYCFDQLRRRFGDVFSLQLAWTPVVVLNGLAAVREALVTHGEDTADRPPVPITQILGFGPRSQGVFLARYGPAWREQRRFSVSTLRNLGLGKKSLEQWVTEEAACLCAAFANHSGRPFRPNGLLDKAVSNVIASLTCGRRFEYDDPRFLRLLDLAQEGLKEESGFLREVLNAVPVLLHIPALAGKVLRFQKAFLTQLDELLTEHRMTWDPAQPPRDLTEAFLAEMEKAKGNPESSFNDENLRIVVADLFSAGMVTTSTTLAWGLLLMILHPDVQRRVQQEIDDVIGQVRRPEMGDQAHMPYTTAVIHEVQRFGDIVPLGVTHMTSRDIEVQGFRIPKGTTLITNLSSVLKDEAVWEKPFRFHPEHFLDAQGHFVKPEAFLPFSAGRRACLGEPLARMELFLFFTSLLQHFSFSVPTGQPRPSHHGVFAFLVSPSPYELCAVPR

Turning to `Cc1nc2c(C(=O)N3CCOCC3)cnn2c(C)c1Cc1ccc(Cl)cc1`, the AC50 on Cytochrome P450 2D6 is 25.1 µM (inconclusive).

As for `Nc1nc(N)c(/N=N\c2ccc([As](=O)(O)O)c(O)c2)c(N)n1`, the AC50 at Cytochrome P450 1A2 was 6.31 µM (inconclusive). Take `CC[C@@](O)(C(=O)O)c1cc2n(c(=O)c1CO)Cc1cc3ccccc3nc1-2`: the AC50 at Cytochrome P450 3A4 and on Cytochrome P450 1A2 was 3.16 µM (inconclusive) throughout. As for `COCCNc1ccnc(-c2ccccc2CN(C)C)n1`, the concentration at half-maximal activity (AC50) at Cytochrome P450 2D6 was 39.8 µM (inconclusive). As for `CCCC(=O)Nc1ccc(-c2nc3cc(C)c(C)cc3o2)c(O)c1`, the IC50 in test [1] was > 47.1 µM (inactive). For the same molecule, in [2], the EC50 is > 53 µM (inactive). The corresponding values for `O=C(O)c1ccc(/C=N/Nc2cccc(C(F)(F)F)c2)cc1` are 43.7 µM (active) and > 53 µM (inactive).

`Cc1cnn(CCC(=O)NN=C(S)Nc2cccc(Cl)c2)c1`: the figures for the AC50 on Cytochrome P450 2C9, at Cytochrome P450 1A2 and on Cytochrome P450 2C19 were 15.8 µM (inconclusive), 15.8 µM (inconclusive) and 39.8 µM (inconclusive), respectively.

As to `CCS(=O)(=O)c1ccc(C(=O)Nc2ccccc2)c(Cl)c1Cl`, the AC50 at Cytochrome P450 2D6 is 31.6 µM (inconclusive); at Cytochrome P450 1A2, 14.1 µM (inconclusive). On to `O=[N+]([O-])c1cccc(-c2nc(-c3ccccn3)no2)c1`, for which the IC50 in test [1] was > 47.1 µM (inactive). Moreover, the EC50 in test [2] was > 53 µM (inactive). Regarding `CNP(=O)(Oc1ccccc1)OC12CC3CC(CC(C3)C1)C2` (stereo not drawn), the IC50 in [1] is > 47.1 µM (inactive). Besides, the EC50 in [2] is > 53 µM (inactive). `NC1(C(=O)O)CC(C(=O)O)C1` (stereo not drawn): the AC50 at Cytochrome P450 1A2 is 39.8 µM (inconclusive).

`O=C(/C=C\c1ccc(O)c(O)c1)O[C@@H](Cc1ccc(O)c(O)c1)C(=O)O`: the concentration at half-maximal activity (AC50) at Cytochrome P450 1A2 is 25.1 µM (inconclusive). Regarding `CCOc1ccccc1/C=C(/NC(=O)c1ccccc1)C(=O)NC(C)c1ccccc1` (stereo not drawn), in test [1], the IC50 was > 47.1 µM (inactive). Besides, the EC50 in test [2] was > 53 µM (inactive). For the molecule `O=c1c(CCc2ccccc2)nc2cnc(N3CCNCC3)nc2n1Cc1ccc(F)cc1`, the AC50 at Cytochrome P450 2D6 was 25.1 µM (inconclusive); on Cytochrome P450 1A2 it was 10 µM (inconclusive). In the case of `CCCCC(=O)Nc1ccc(C)c(O)c1`, the values for the AC50 on Cytochrome P450 2D6 and on Cytochrome P450 2C9 were 17.8 µM (inconclusive) and 14.1 µM (inconclusive), respectively. On to `N#Cc1ccc(CN2CC[C@@]3(CCCN(S(=O)(=O)c4ccccc4)C3)C2)cc1`, for which, on Cytochrome P450 1A2, the AC50 is 15.8 µM (inconclusive).

`CS(=O)(=O)Nc1cccc(-c2cncnc2NCc2cccnc2)c1`: the AC50 at Cytochrome P450 2D6 is 39.8 µM (inconclusive). For `CC1(C)C(=O)C(c2ccccc2)=C2CN3C(=O)N(CCc4ccccc4)C(=O)C3(Cc3ccc(F)cc3)C=C21` (stereo not drawn), the AC50 was 10 µM (inconclusive) at Cytochrome P450 2C9 and 15.8 µM (inconclusive) at Cytochrome P450 1A2.

For `Cc1ccc2nc(SCC(=O)c3ccc(Cl)s3)[nH]c2c1`, the EC50 at Streptokinase A is > 150 µM (not active). For the molecule `O=C(NCCN1CCN(C(=O)NC2CCCCC2)CC1)NC1CCCCC1`, in [1], the IC50 was > 47.1 µM (inactive). Moreover, the EC50 in [2] is > 53 µM (inactive). `O=C(Nc1ccc(S(=O)(=O)N2CCOCC2)cc1)c1ccc(Cl)c([N+](=O)[O-])c1`: the IC50 in test [1] was > 47.1 µM (inactive). For the same molecule, the EC50 in [2] is > 53 µM (inactive). `COc1ccc(NC(=S)Nc2ccccc2)cc1`: the AC50 at Cytochrome P450 1A2 was 1.26 µM (inconclusive). Consider `O=C(NC1CCCC1)C1CCC(CNS(=O)(=O)c2ccc(F)cc2)CC1` (stereo not drawn), for which, in test [1], the IC50 is > 47.1 µM (inactive). Further, the EC50 in test [2] was > 53 µM (inactive). Consider `N#CCSc1nc2ccc(N3CCCCC3)cc2c(=O)n1Cc1ccccc1`, for which the concentration at half-maximal activity (AC50) on Cytochrome P450 2D6 was 5.62 µM (inconclusive); at Cytochrome P450 2C9 it was 4.47 µM (inconclusive). With `Cn1cccc1C(=O)N1CCC[C@@]2(CCN(Cc3ccc(C#N)cc3)C2)C1`, on Cytochrome P450 2D6, the half-maximal activity concentration (AC50) was 20 µM (inconclusive). Regarding `O=C(Nc1ccccc1)N1CC2(CCN(C(=O)c3cnccn3)CC2)C1`, the AC50 on Cytochrome P450 1A2 was 20 µM (inconclusive).

For `O=C(Nc1ccn(CCCNCc2ccc3c(c2)OCO3)c(=O)n1)OCc1ccccc1`, the IC50 in test [1] was > 47.1 µM (inactive). Moreover, the EC50 in [2] was > 53 µM (inactive). As for `Cc1ccc(N(C(=O)Cn2nnc(-c3ccc(F)cc3)n2)C(CC(C)C)C(=O)NCC2CCCO2)cc1` (stereo not drawn), the AC50 at Cytochrome P450 2D6 is 25.1 µM (inconclusive). Take `COc1cc(NC(=O)CSc2cc(C)c3cc(C)cc(C)c3n2)c(C(=O)O)cc1OC`: the IC50 in [1] is > 47.1 µM (inactive). The EC50 in test [2] was > 53 µM (inactive). Turning to `CCCn1nc(C(=O)NCC(C)(C)N2CCOCC2)c2ccccc2c1=O`, the figures for the AC50 on Cytochrome P450 2D6 and at Cytochrome P450 2C9 were 3.98 µM (inconclusive) and 39.8 µM (inconclusive), respectively. Turning to `CCOC(=O)c1c[nH]nc1N=C(S)Nc1ccc(Cl)cc1`, the IC50 in test [1] is > 47.1 µM (inactive). Moreover, in [2], the EC50 is > 53 µM (inactive).

With `N#CCCn1c(=O)c(-c2cccc(C#N)c2)nc2cnc(N3CCOCC3)nc21`, the AC50 on Cytochrome P450 3A4 and at Cytochrome P450 1A2 was 15.8 µM (inconclusive) in each case. In the case of `CCc1c2c(nc3c(C(C)C)cccc13)-c1cccc(=O)n1C2`, the figures for the AC50 on Cytochrome P450 2D6 and at Cytochrome P450 2C19 were 39.8 µM (inconclusive) and 20 µM (inconclusive), respectively. Regarding `CCOc1cc(NC(=O)C2CCCCC2)c(OCC)cc1NC(=O)c1ccco1`, the AC50 was 1.12 µM (inconclusive) on Cytochrome P450 3A4, 11.2 µM (inconclusive) at Cytochrome P450 2C9 and 2 µM (inconclusive) at Cytochrome P450 1A2. In the case of `C[C@@H]1CN([C@H](C)CO)C(=O)Cc2cc(NC(=O)Nc3ccc(F)cc3)ccc2O[C@H]1CN(C)C(=O)Nc1ccc(C(F)(F)F)cc1`, at Paired box protein Pax-8, the half-maximal activity concentration (AC50) is 11.4 µM (active). Consider `CC(C)(C)OC(=O)NCCCC[C@H](NC(=O)c1[nH]cnc1C(=O)N[C@@H](Cc1ccccc1)C(=O)OC(C)(C)C)C(=O)OC(C)(C)C`, for which, on Paired box protein Pax-8, the AC50 is 7.6 µM (active). On to `CCn1c(COc2ccccc2)nnc1SCC(=O)c1cccc([N+](=O)[O-])c1`, for which the AC50 on Cytochrome P450 1A2 is 28.2 µM (inconclusive); on Cytochrome P450 2C19, 39.8 µM (inconclusive). For `Cc1onc(O)c1CC[C@H](N)C(=O)O`, the AC50 on Cytochrome P450 1A2 was 39.8 µM (inconclusive). Regarding `Cc1ccc2nc(-c3cccnc3)oc2c1`, the AC50 was 5.62 µM (inconclusive) on Cytochrome P450 2D6 and 28.2 µM (inconclusive) on Cytochrome P450 2C19. As to `O[C@]1(c2ccccc2)c2ccccc2N=C2NCCN21`, the AC50 at Cytochrome P450 2D6 was 2.51 µM (inconclusive). On to `CCCCC(C(=O)O)C(C)CC(=O)Nc1nncs1` (stereo not drawn), for which the IC50 in test [1] is > 47.1 µM (inactive). Besides, the EC50 in [2] is > 53 µM (inactive).

For the origin of these results see ChEMBL document CHEMBL1201862, “PubChem BioAssay data set” (2004).
